Holding throughout (assay): relative viability (nuclei count vs DMSO), 5 days (fraction); higher = more cells survive
Compound in the test “R406 + Trametinib”: COc1cc(Nc2ncc(F)c(Nc3ccc4c(n3)NC(=O)C(C)(C)O4)n2)cc(OC)c1OC [R406] + CC(=O)Nc1cccc(-n2c(=O)n(C3CC3)c(=O)c3c(Nc4ccc(I)cc4F)n(C)c(=O)c(C)c32)c1 [Trametinib] (partner 0.02 µM)
A digest of the protocol:
(§1)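 Lung cancer cell lines in 1536-well plates got either a single drug or a fixed anchor-drug dose together with five library-drug doses (not always all listed) in √10 steps, by pin tool, on the day after seeding. Nuclei were counted after 5 days, and relative viability is the treated-to-vehicle ratio of nuclei counts. Values are medians of duplicate plates.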

Compound in the test “R406 + Alpelisib”: COc1cc(Nc2ncc(F)c(Nc3ccc4c(n3)NC(=O)C(C)(C)O4)n2)cc(OC)c1OC [R406] + Cc1nc(NC(=O)N2CCC[C@H]2C(N)=O)sc1-c1ccnc(C(C)(C)C(F)(F)F)c1 [Alpelisib] (partner 2 µM)
In outline: as §1

Compound in the test “R406 + Phenformin”: COc1cc(Nc2ncc(F)c(Nc3ccc4c(n3)NC(=O)C(C)(C)O4)n2)cc(OC)c1OC [R406] + N=C(N)NC(=N)NCCc1ccccc1 [Phenformin] (partner 250 µM)
A digest of the protocol:
as §1

Compound in the test “Daporinad + Vorinostat”: O=C(/C=C/c1cccnc1)NCCCCC1CCN(C(=O)c2ccccc2)CC1 [Daporinad] + O=C(CCCCCCC(=O)Nc1ccccc1)NO [Vorinostat] (partner 1 µM)
In outline: as §1

PC-14: the relative viability with R406 + Trametinib (first compound 0.08 µM) amounted to 0.777; with R406 + Trametinib (first compound 0.253 µM), 0.898; with R406 + Trametinib (first compound 0.8 µM), 0.857; with R406 + Trametinib (first compound 2.53 µM) it was 0.628; with R406 + Trametinib (first compound 8 µM), 0.11; with R406 + Alpelisib (first compound 0.08 µM), 0.947. The relative viability in the test with R406 + Alpelisib (first compound 0.253 µM) amounted to 1.01; with R406 + Alpelisib (first compound 0.8 µM) it was 1.01; in the test with R406 + Alpelisib (first compound 2.53 µM), 0.664; with R406 + Alpelisib (first compound 8 µM), 0.636; in the test with R406 + Phenformin (first compound 0.08 µM), 0.602; in the test with R406 + Phenformin (first compound 0.253 µM), 0.951. Moreover, the relative viability came out at 0.746 with R406 + Phenformin (first compound 0.8 µM); 0.332 with R406 + Phenformin (first compound 2.53 µM); 0.12 with R406 + Phenformin (first compound 8 µM); 0.519 with Daporinad + Vorinostat (first compound 0.0005 µM); 0.863 in the test with Daporinad + Vorinostat (first compound 0.001581 µM); 0.898 with Daporinad + Vorinostat (first compound 0.005 µM). Besides, the relative viability with Daporinad + Vorinostat (first compound 0.01581 µM) came out at 0.472.

On to RERF-LC-KJ, for which the relative viability stood at 0.833 with R406 + Trametinib (first compound 0.08 µM); 0.918 with R406 + Trametinib (first compound 0.253 µM); 1 in the test with R406 + Trametinib (first compound 0.8 µM); 0.753 in the test with R406 + Trametinib (first compound 2.53 µM); 0.715 in the test with R406 + Trametinib (first compound 8 µM); 0.87 with R406 + Alpelisib (first compound 0.08 µM). In addition, the relative viability with R406 + Alpelisib (first compound 0.253 µM) turned out to be 1.07; with R406 + Alpelisib (first compound 0.8 µM) it was 0.971; with R406 + Alpelisib (first compound 2.53 µM), 0.738; with R406 + Alpelisib (first compound 8 µM), 0.597; with R406 + Phenformin (first compound 0.08 µM), 0.43; with R406 + Phenformin (first compound 0.253 µM) it was 0.415. For the same cell line, the relative viability with R406 + Phenformin (first compound 0.8 µM) is 0.41; in the test with R406 + Phenformin (first compound 2.53 µM), 0.362; in the test with R406 + Phenformin (first compound 8 µM), 0.286; with Daporinad + Vorinostat (first compound 0.0005 µM) it was 0.659; with Daporinad + Vorinostat (first compound 0.001581 µM) it was 0.795; in the test with Daporinad + Vorinostat (first compound 0.005 µM), 0.814. For the same cell line, the relative viability in the test with Daporinad + Vorinostat (first compound 0.01581 µM) was 0.701.

SK-LU-1: the relative viability in the test with R406 + Trametinib (first compound 0.08 µM) was 0.535; with R406 + Trametinib (first compound 0.253 µM), 0.531; with R406 + Trametinib (first compound 0.8 µM), 0.55; with R406 + Trametinib (first compound 2.53 µM) it was 0.157; with R406 + Trametinib (first compound 8 µM), 0.195; with R406 + Alpelisib (first compound 0.08 µM) it was 1.01. The relative viability with R406 + Alpelisib (first compound 0.253 µM) was found to be 0.849; with R406 + Alpelisib (first compound 0.8 µM) it was 1.05; in the test with R406 + Alpelisib (first compound 2.53 µM), 0.368; with R406 + Alpelisib (first compound 8 µM), 0.203; with R406 + Phenformin (first compound 0.08 µM), 0.597; in the test with R406 + Phenformin (first compound 0.253 µM), 0.608. Also, the relative viability in the test with R406 + Phenformin (first compound 0.8 µM) came to 0.628; with R406 + Phenformin (first compound 2.53 µM), 0.175; in the test with R406 + Phenformin (first compound 8 µM), 0.0854; in the test with Daporinad + Vorinostat (first compound 0.0005 µM), 0.851; in the test with Daporinad + Vorinostat (first compound 0.001581 µM), 0.85; with Daporinad + Vorinostat (first compound 0.005 µM) it was 0.919. In addition, the relative viability in the test with Daporinad + Vorinostat (first compound 0.01581 µM) turned out to be 0.788.

For the cell line SK-MES-1, the relative viability turned out to be 0.561 with R406 + Trametinib (first compound 0.08 µM); 0.531 with R406 + Trametinib (first compound 0.253 µM); 0.553 with R406 + Trametinib (first compound 0.8 µM); 0.304 with R406 + Trametinib (first compound 2.53 µM); 0.218 with R406 + Trametinib (first compound 8 µM); 0.749 with R406 + Alpelisib (first compound 0.08 µM). Moreover, the relative viability with R406 + Alpelisib (first compound 0.253 µM) amounted to 0.964; in the test with R406 + Alpelisib (first compound 0.8 µM), 0.957; with R406 + Alpelisib (first compound 2.53 µM) it was 0.414; with R406 + Alpelisib (first compound 8 µM), 0.406; with R406 + Phenformin (first compound 0.08 µM), 0.645; in the test with R406 + Phenformin (first compound 0.253 µM) it was 0.685. Further, the relative viability with R406 + Phenformin (first compound 0.8 µM) worked out at 0.706; in the test with R406 + Phenformin (first compound 2.53 µM) it was 0.583; with R406 + Phenformin (first compound 8 µM), 0.349; with Daporinad + Vorinostat (first compound 0.0005 µM) it was 1; in the test with Daporinad + Vorinostat (first compound 0.001581 µM), 1.2; in the test with Daporinad + Vorinostat (first compound 0.005 µM), 1.26. The relative viability in the test with Daporinad + Vorinostat (first compound 0.01581 µM) turned out to be 1.01.

For SW 1573, the relative viability in the test with R406 + Trametinib (first compound 0.08 µM) worked out at 0.548; with R406 + Trametinib (first compound 0.253 µM), 0.614; in the test with R406 + Trametinib (first compound 0.8 µM) it was 0.628; with R406 + Trametinib (first compound 2.53 µM) it was 0.443; with R406 + Trametinib (first compound 8 µM), 0.193; in the test with R406 + Alpelisib (first compound 0.08 µM), 0.753. Also, the relative viability with R406 + Alpelisib (first compound 0.253 µM) is 1.02; with R406 + Alpelisib (first compound 0.8 µM), 0.739; in the test with R406 + Alpelisib (first compound 2.53 µM), 0.673; in the test with R406 + Alpelisib (first compound 8 µM), 0.494; with R406 + Phenformin (first compound 0.08 µM), 0.371; in the test with R406 + Phenformin (first compound 0.253 µM), 0.43. The relative viability was 0.469 with R406 + Phenformin (first compound 0.8 µM); 0.263 with R406 + Phenformin (first compound 2.53 µM); 0.151 with R406 + Phenformin (first compound 8 µM); 0.715 with Daporinad + Vorinostat (first compound 0.0005 µM); 1.12 in the test with Daporinad + Vorinostat (first compound 0.001581 µM); 0.535 with Daporinad + Vorinostat (first compound 0.005 µM). Further, the relative viability in the test with Daporinad + Vorinostat (first compound 0.01581 µM) is 0.305.

For the origin of these results see the supplement of paper PMC10307832.
